The text below walks through data of patent US7524975B2, “Peroxisome proliferator activated receptor ligand and process for producing the same” (Kaneka Corporation, priority 2001, dated 2009).

In test [1] the test system is KK-Ay mouse. Kind of test: Effect on type 2 diabetes mellitus model mouse: blood glucose level during mixed-feed administration. It counts as in vivo. The note with it: KK-Ay mice; for Blood glucose level: means±SE, n=5. As for the experimental part:
Using a KK-Ay mouse which is genetically obese and type 2 diabetic animal, the effect of Compound 2 on diabetes mellitus was evaluated.
Compound 2 was prepared in the same procedure as in Example 1 and added to the basal diet such that the content of Compound 2 in a final feed was 0.1%. On the day before administration and 4 days after administration, a small amount of blood was collected from a mouse tail vein, and measured for its blood glucose level by a simple blood glucose measuring instrument Glutest Ace (Sanwa Kagaku Kenkyusho Co., Ltd.).

Test [2] concerns KK-Ay mouse. Kind of test: Glucose tolerance test (sucrose loading) in KK-Ay mice. Format: in vivo. To be noted: for Blood glucose level: oral pioglitazone 20 mg/kg or Compound 2 100 mg/kg. As for the experimental part: After the mixed feed was given for 1 week, the mice were fasted overnight and then subjected to a glucose tolerance test. […] To the non-additive group (control group), 0.5% CMC-Na solution was administered in an amount of 5 ml/kg. At a time of 30 minutes after administration, the mice were loaded with 2 g/kg of 40% sucrose solution. Before the sugar loading and at a time of 30 minutes, 1 hour and 2 hours after the sugar loading, a small amount of blood was collected from a mouse tail vein, and measured for its blood glucose level by a simple blood glucose measuring instrument Glutest Ace (Sanwa Kagaku Kenkyusho Co., Ltd.).

Test [3] addresses T1, mouse PPARγ ligand-binding site (Mus musculus, UniProt P37238).
T1 construct: expressed in transfected cells; host or cells: CV-1 cells (African green monkey kidney)
T1 sequence (P37238 174-475 isoform P37238-2): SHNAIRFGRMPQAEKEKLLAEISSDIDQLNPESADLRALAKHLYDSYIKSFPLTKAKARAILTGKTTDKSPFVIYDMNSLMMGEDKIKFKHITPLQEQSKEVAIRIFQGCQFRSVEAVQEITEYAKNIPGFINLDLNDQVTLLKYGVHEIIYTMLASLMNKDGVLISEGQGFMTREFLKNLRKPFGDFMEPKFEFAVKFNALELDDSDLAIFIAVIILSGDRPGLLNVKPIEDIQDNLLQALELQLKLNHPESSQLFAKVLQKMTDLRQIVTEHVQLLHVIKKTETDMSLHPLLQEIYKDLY
Kind of test: Measurement of PPARγ ligand activity (GAL4 chimera luciferase reporter in CV-1 cells). It counts as cell-based. To be noted: CV-1 cells, 24 hours, specific activity relative to untreated control (DMSO) = 1.00. The method, then:
CV-1 cells (cultured cells derived from the kidney of a male African green monkey) were inoculated on a 96-well culture plate in a concentration of 6×10^3 cells/well and incubated at 37° C. in 5% CO2 for 24 hours. The medium used was DMEM (Dulbecco's Modified Eagle Medium: GIBCO) containing 10% FBS (fetal bovine serum), 10 ml/L penicillin and streptomycin solution (containing 5000 IU/ml and 5,000 μg/ml, respectively: GIBCO) and 37 mg/L ascorbic acid (Wako Pure Chemical Industries, Ltd.). […] 4xUASg-luc is a reporter plasmid comprising four GAL4 response sequences (UASg) integrated into a region upstream of a luciferase gene. At about 24 hours after transfection, the medium was exchanged with a sample-containing medium, and the cells were cultured for 24 hours (n=4). The sample-containing medium was prepared by dissolving a sample in dimethyl sulfoxide (DMSO) in an amount of 1/1000 based on the medium, while for the untreated control, DMSO in an amount of 1/1000 based on the medium was used in place of the sample. After the cells were washed with a Ca- and Mg-containing phosphate buffered physiological saline (PBS+), LucLite (Packard) was added thereto, and the intensity of luciferase luminescence was measured with a TopCount microplate scintillation/luminescence counter (Packard).
As the control group, pM (plasmid from which the PPARγ ligand-binding site gene was removed) was measured in place of pM-mPPARγ in the same manner as for the measurement group. For each sample, the ratio (measurement group/control group) of the average luminescence intensity of the measurement group (n=4) to that of the control group was calculated, and the specific activity relative to the activity of the untreated control was regarded as the PPARγ ligand activity of the sample.

Where [4] appears, read: 4 days after administration, in feed: pioglitazone 0.02%, Compound 2 0.1%.
Setting [5] is: 30 minutes after sugar loading (2 g/kg sucrose).
Where [6] appears, read: 1 hour after sugar loading (2 g/kg sucrose).
Where [7] appears, read: before sugar loading, fasted KK-Ay mice after 1 week mixed feed.

Turning to `CCc1ccc(CCOc2ccc(CC3SC(=O)NC3=O)cc2)nc1` (stereo not shown) [Pioglitazone, pioglitazone, reference compound], the Blood glucose level in the test with KK-Ay mouse [1] (setting [4]) turned out to be 191 ± 6 mg/dL; in the test on KK-Ay mouse [1] (before administration), 486 ± 26 mg/dL; with KK-Ay mouse [2] (setting [5]) it was 158 ± 11 mg/dL; in the test on KK-Ay mouse [2] (setting [6]), 136 ± 5 mg/dL; in the test with KK-Ay mouse [2] (setting [7]), 89 ± 3 mg/dL.
Regarding `COc1cc2oc(=O)c(-c3ccc(O)cc3O)cc2c(OC)c1CC=C(C)C` [Compound 2, Glycyrin], the PPARγ ligand activity in test [3] (added concentration 2 μg/ml) amounted to 2.81; in test [3] (added concentration 5 μg/ml) it was 3.34; in test [3] (added concentration 10 μg/ml), 3.67. In addition, the Blood glucose level with KK-Ay mouse [1] (setting [4]) came out at 278 ± 14 mg/dL; with KK-Ay mouse [1] (before administration) it was 474 ± 27 mg/dL; in the test on KK-Ay mouse [2] (setting [5]), 225 ± 27 mg/dL; in the test with KK-Ay mouse [2] (setting [6]), 129 ± 8 mg/dL; with KK-Ay mouse [2] (2 hour after sugar loading (2 g/kg sucrose)), 100 ± 3 mg/dL; with KK-Ay mouse [2] (setting [7]), 78 ± 4 mg/dL. Also, the “Blood glucose levels on the fourth day after the administration (in words)” value with KK-Ay mouse [1] (0.1% in feed) is “statistically significantly reduced”. For the same compound, the “Increase in blood glucose levels after the sugar loading (in words)” value in the test on KK-Ay mouse [2] (KK-Ay mice, 100 mg/kg oral) is reported as “statistically significantly inhibited a rapid increase in blood glucose levels after the sugar loading”.
